According to ChEMBL document CHEMBL1255213, “Bottromycin derivatives: efficient chemical modifications of the ester moiety and evaluation of anti-MRSA and anti-VRE activities” (2010):
Converted amounts (≈) assume the structure as drawn.

Legend:
Type in all cases: functional
Staphylococcus aureus [1] = test: Antimicrobial activity against Staphylococcus aureus FDA209P by standard serial-dilution technique
Enterococcus faecium [2] = test: Antimicrobial activity against Enterococcus faecium NCTC 12203 by standard serial-dilution technique
Staphylococcus aureus [3] = test: Antimicrobial activity against methicillin-resistant Staphylococcus aureus HH1 by standard serial-dilution technique
Enterococcus faecium [4] = test: Antimicrobial activity against Enterococcus faecium NCTC 12201 by standard serial-dilution technique
Staphylococcus aureus [5] = test: Antimicrobial activity against methicillin-resistant Staphylococcus aureus assessed as rate of residual activity; parameters: concentration or dose not given beside the values
Staphylococcus aureus [6] = test: Antimicrobial activity against methicillin-resistant Staphylococcus aureus 92-1191 by standard serial-dilution technique
Staphylococcus aureus [7] = test: Antimicrobial activity against Staphylococcus aureus Smith by standard serial-dilution technique

Structure (SMILES) | MIC (Staphylococcus aureus [1]) [µg/mL] | MIC (Enterococcus faecium [2]) [µg/mL] | MIC (Staphylococcus aureus [3]) [µg/mL] | MIC (Enterococcus faecium [4]) [µg/mL] | Activity (Staphylococcus aureus [5]) [%] | MIC (Staphylococcus aureus [6]) [µg/mL] | MIC (Staphylococcus aureus [7]) [µg/mL]
CC(C)[C@@H]1NC(=O)[C@@H]2[C@H](C)CCN2C(=O)CN/C(=N\[C@H](C(=O)N[C@H](C(=O)N[C@H](CC(=O)NCc2ccccc2)c2nccs2)[C@@H](C)c2ccccc2)C(C)(C)C)[C@H](C(C)(C)C)NC1=O | 8 (≈ 8.91 µM) | 2 (≈ 2.23 µM) | 8 (≈ 8.91 µM) | 8 (≈ 8.91 µM) | 71 | 8 (≈ 8.91 µM) | 8 (≈ 8.91 µM)
CC(C)[C@@H]1NC(=O)[C@@H]2[C@H](C)CCN2C(=O)CN/C(=N\[C@H](C(=O)N[C@H](C(=O)N[C@H](CC(=O)N2CCN(C(=O)OC(C)(C)C)CC2)c2nccs2)[C@@H](C)c2ccccc2)C(C)(C)C)[C@H](C(C)(C)C)NC1=O | 8 (≈ 8.19 µM) | 4 (≈ 4.09 µM) | 8 (≈ 8.19 µM) | 8 (≈ 8.19 µM) | 42 | 8 (≈ 8.19 µM) | 4 (≈ 4.09 µM)
CCCSC(=O)C[C@@H](NC(=O)[C@@H](NC(=O)[C@@H](/N=C1\NCC(=O)N2CC[C@@H](C)[C@H]2C(=O)N[C@@H](C(C)C)C(=O)N[C@H]1C(C)(C)C)C(C)(C)C)[C@@H](C)c1ccccc1)c1nccs1 | 0.5 (≈ 0.577 µM) | ≤ 0.25 | ≤ 0.25 | 1 (≈ 1.15 µM) | 0 | 1 (≈ 1.15 µM) | 0.5 (≈ 0.577 µM)
CC(C)[C@@H]1NC(=O)[C@@H]2[C@H](C)CCN2C(=O)CN/C(=N\[C@H](C(=O)N[C@H](C(=O)N[C@H](CNC(=O)N2CCSC2)c2nccs2)[C@@H](C)c2ccccc2)C(C)(C)C)[C@H](C(C)(C)C)NC1=O | 4 (≈ 4.47 µM) | 2 (≈ 2.23 µM) | 4 (≈ 4.47 µM) | 4 (≈ 4.47 µM) | 100 | 4 (≈ 4.47 µM) | 4 (≈ 4.47 µM)
CC(C)[C@@H]1NC(=O)[C@@H]2[C@H](C)CCN2C(=O)CN/C(=N\[C@H](C(=O)N[C@H](C(=O)N[C@H](CC(=O)N2CCNCC2)c2nccs2)[C@@H](C)c2ccccc2)C(C)(C)C)[C@H](C(C)(C)C)NC1=O | 64 (≈ 73 µM) | 32 (≈ 36.5 µM) | 64 (≈ 73 µM) | 32 (≈ 36.5 µM) |  | 128 (≈ 146 µM) | 32 (≈ 36.5 µM)
CC(C)[C@@H]1NC(=O)[C@@H]2[C@H](C)CCN2C(=O)CN/C(=N\[C@H](C(=O)N[C@H](C(=O)N[C@H](CC(=O)N2CCN(Cc3ccccc3)CC2)c2nccs2)[C@@H](C)c2ccccc2)C(C)(C)C)[C@H](C(C)(C)C)NC1=O | 4 (≈ 4.14 µM) | 4 (≈ 4.14 µM) | 4 (≈ 4.14 µM) | 4 (≈ 4.14 µM) | 84 | 4 (≈ 4.14 µM) | 4 (≈ 4.14 µM)
CC(=O)NC[C@H]1CN(c2ccc(N3CCOCC3)c(F)c2)C(=O)O1 [LINEZOLID] |  | 2 (≈ 5.93 µM) |  | 2 (≈ 5.93 µM) |  |  | 
CC(C)[C@@H]1NC(=O)[C@@H]2[C@H](C)CCN2C(=O)CN/C(=N\[C@H](C(=O)N[C@H](C(=O)N[C@H](CC(=O)NN)c2nccs2)[C@@H](C)c2ccccc2)C(C)(C)C)[C@H](C(C)(C)C)NC1=O | 16 (≈ 19.4 µM) | 4 (≈ 4.86 µM) | 16 (≈ 19.4 µM) | 8 (≈ 9.72 µM) | 86 | 32 (≈ 38.9 µM) | 16 (≈ 19.4 µM)
C#CCNC(=O)C[C@@H](NC(=O)[C@@H](NC(=O)[C@@H](/N=C1\NCC(=O)N2CC[C@@H](C)[C@H]2C(=O)N[C@@H](C(C)C)C(=O)N[C@H]1C(C)(C)C)C(C)(C)C)[C@@H](C)c1ccccc1)c1nccs1 | 8 (≈ 9.46 µM) | 2 (≈ 2.36 µM) | 8 (≈ 9.46 µM) | 4 (≈ 4.73 µM) | 100 | 16 (≈ 18.9 µM) | 8 (≈ 9.46 µM)
CC(C)[C@@H]1NC(=O)[C@@H]2[C@H](C)CCN2C(=O)CN/C(=N\[C@H](C(=O)N[C@H](C(=O)N[C@H](CC(=O)O)c2nccs2)[C@@H](C)c2ccccc2)C(C)(C)C)[C@H](C(C)(C)C)NC1=O | 64 (≈ 79.1 µM) | 32 (≈ 39.6 µM) | 64 (≈ 79.1 µM) | 128 (≈ 158 µM) |  | 128 (≈ 158 µM) | 64 (≈ 79.1 µM)
CC(C)[C@@H]1NC(=O)[C@@H]2[C@H](C)CCN2C(=O)CN/C(=N\[C@H](C(=O)N[C@H](C(=O)N[C@H](CC(=O)N2CCOCC2)c2nccs2)[C@@H](C)c2ccccc2)C(C)(C)C)[C@H](C(C)(C)C)NC1=O | 16 (≈ 18.2 µM) | 4 (≈ 4.56 µM) | 16 (≈ 18.2 µM) | 16 (≈ 18.2 µM) | 100 | 32 (≈ 36.4 µM) | 8 (≈ 9.11 µM)
CN[C@H](CC(C)C)C(=O)N[C@H]1C(=O)N[C@@H](CC(N)=O)C(=O)N[C@H]2C(=O)N[C@H]3C(=O)N[C@H](C(=O)N[C@H](C(=O)O)c4cc(O)cc(O)c4-c4cc3ccc4O)[C@H](O)c3ccc(c(Cl)c3)Oc3cc2cc(c3O[C@@H]2O[C@H](CO)[C@@H](O)[C@H](O)[C@H]2O[C@H]2C[C@](C)(N)[C@H](O)[C@H](C)O2)Oc2ccc(cc2Cl)[C@H]1O [VANCOMYCIN] |  | > 128 |  | > 128 |  |  | 
CCSC(=O)C[C@@H](NC(=O)[C@@H](NC(=O)[C@@H](/N=C1\NCC(=O)N2CC[C@@H](C)[C@H]2C(=O)N[C@@H](C(C)C)C(=O)N[C@H]1C(C)(C)C)C(C)(C)C)[C@@H](C)c1ccccc1)c1nccs1 | ≤ 0.25 | ≤ 0.25 | ≤ 0.25 | ≤ 0.25 | 0 | 0.5 (≈ 0.586 µM) | 0.5 (≈ 0.586 µM)
CC(C)[C@@H]1NC(=O)[C@@H]2[C@H](C)CCN2C(=O)CN/C(=N\[C@H](C(=O)N[C@H](C(=O)N[C@H](CNC(=O)NCc2ccccc2)c2nccs2)[C@@H](C)c2ccccc2)C(C)(C)C)[C@H](C(C)(C)C)NC1=O | 8 (≈ 8.76 µM) | 4 (≈ 4.38 µM) | 16 (≈ 17.5 µM) | 8 (≈ 8.76 µM) | 100 | 16 (≈ 17.5 µM) | 16 (≈ 17.5 µM)
CCC(=O)C[C@@H](NC(=O)[C@@H](NC(=O)[C@@H](/N=C1\NCC(=O)N2CC[C@@H](C)[C@H]2C(=O)N[C@@H](C(C)C)C(=O)N[C@H]1C(C)(C)C)C(C)(C)C)[C@@H](C)c1ccccc1)c1nccs1 | 1 (≈ 1.22 µM) | 1 (≈ 1.22 µM) | 2 (≈ 2.44 µM) | 2 (≈ 2.44 µM) | 100 | 2 (≈ 2.44 µM) | 1 (≈ 1.22 µM)
CCCC(=O)C[C@@H](NC(=O)[C@@H](NC(=O)[C@@H](/N=C1\NCC(=O)N2CC[C@@H](C)[C@H]2C(=O)N[C@@H](C(C)C)C(=O)N[C@H]1C(C)(C)C)C(C)(C)C)[C@@H](C)c1ccccc1)c1nccs1 | 1 (≈ 1.2 µM) | 0.5 (≈ 0.599 µM) | 1 (≈ 1.2 µM) | 2 (≈ 2.39 µM) | 100 | 2 (≈ 2.39 µM) | 1 (≈ 1.2 µM)
CC(C)[C@@H]1NC(=O)[C@@H]2[C@H](C)CCN2C(=O)CN/C(=N\[C@H](C(=O)N[C@H](C(=O)N[C@H](CC(=O)N2CCSCC2)c2nccs2)[C@@H](C)c2ccccc2)C(C)(C)C)[C@H](C(C)(C)C)NC1=O | 8 (≈ 8.95 µM) | 4 (≈ 4.47 µM) | 8 (≈ 8.95 µM) | 4 (≈ 4.47 µM) | 100 | 8 (≈ 8.95 µM) | 4 (≈ 4.47 µM)
CC(C)SC(=O)C[C@@H](NC(=O)[C@@H](NC(=O)[C@@H](/N=C1\NCC(=O)N2CC[C@@H](C)[C@H]2C(=O)N[C@@H](C(C)C)C(=O)N[C@H]1C(C)(C)C)C(C)(C)C)[C@@H](C)c1ccccc1)c1nccs1 | 0.5 (≈ 0.577 µM) | ≤ 0.25 | 0.5 (≈ 0.577 µM) | 1 (≈ 1.15 µM) | 0 | 1 (≈ 1.15 µM) | 0.5 (≈ 0.577 µM)
COC(=O)C[C@@H](NC(=O)[C@@H](NC(=O)[C@@H](/N=C1\NCC(=O)N2CC[C@@H](C)[C@H]2C(=O)N[C@@H](C(C)C)C(=O)N[C@H]1C(C)(C)C)C(C)(C)C)[C@@H](C)c1ccccc1)c1nccs1 | 1 (≈ 1.21 µM) | 0.5 (≈ 0.607 µM) | 1 (≈ 1.21 µM) | 1 (≈ 1.21 µM) | 0 | 2 (≈ 2.43 µM) | 1 (≈ 1.21 µM)
CC(C)[C@@H]1NC(=O)[C@@H]2[C@H](C)CCN2C(=O)CN/C(=N\[C@H](C(=O)N[C@H](C(=O)N[C@H](CC(=O)N2CCSC2)c2nccs2)[C@@H](C)c2ccccc2)C(C)(C)C)[C@H](C(C)(C)C)NC1=O | 4 (≈ 4.54 µM) | 2 (≈ 2.27 µM) | 8 (≈ 9.09 µM) | 8 (≈ 9.09 µM) | 100 | 8 (≈ 9.09 µM) | 4 (≈ 4.54 µM)
C#CCN1CCN(C(=O)C[C@@H](NC(=O)[C@@H](NC(=O)[C@@H](/N=C2\NCC(=O)N3CC[C@@H](C)[C@H]3C(=O)N[C@@H](C(C)C)C(=O)N[C@H]2C(C)(C)C)C(C)(C)C)[C@@H](C)c2ccccc2)c2nccs2)CC1 | 16 (≈ 17.5 µM) | 16 (≈ 17.5 µM) | 16 (≈ 17.5 µM) | 16 (≈ 17.5 µM) | 67 | 32 (≈ 35 µM) | 16 (≈ 17.5 µM)
